Legend:
[1] = tested on: Human peripheral blood mononuclear cells; assay: Human Concanavalin-A Proliferation Assay (Con HU Assay); assay type: cell-based; conditions: concanavalin-A stimulated human PBMC; for inhibition at 10 µM / IC50 / inhibition at 100 µM / inhibition at 1 µM: Homo sapiens, PBMC; for inhibition at 10 µM / inhibition at 100 µM / inhibition at 1 µM: 72 h, read-out: % Inhibition of proliferation (at concentrations of 1,10, or 100 μm); for inhibition at 10 µM: concentration 10 μm (in parentheses in the cell); for IC50: tritiated thymidine; for inhibition at 100 µM: concentration 100 μm (in parentheses in the cell)
Method in brief: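 Proliferation read as tritiated thymidine uptake (0.5 μCi/well, 6 h pulse on day 3) in human PBMC cultured 3 days with 2.5 μg/ml (final) concanavalin-A. Cells, 50,000 per well in supplemented RPMI 1640 with 10% FBS, received compound 15 min before mitogen.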

[2] = concentration 1 μm (in parentheses in the cell), 3 days

Row | Structure (SMILES) | melting point | inhibition at 10 µM ([1]; 3 days) | IC50 [1] | inhibition at 100 µM ([1]; 3 days) | inhibition at 1 µM [1, 2] | % Inhibition of proliferation (at concentrations of 1,10, or 100 μm) [1, 2]
1 | NC(=O)c1cccc(C(=O)Nc2ccc(-n3nc(C(F)(F)F)cc3C(F)(F)F)cc2)c1 [Example 138, N-[4-[3,5-bis(trifluoromethyl)-1H-pyrazol-1-yl]phenyl]-1,3-benzenedicarboxamide] | 244 to 245 °C | 99% | 364 nM |  |  | 
2 | O=C(Nc1ccc(-n2nc(C(F)(F)F)cc2C(F)(F)F)cc1)c1cccc([N+](=O)[O-])c1 [Example 140, N-[4-[3,5-bis(trifluoromethyl)-1H-pyrazol-1-yl]phenyl]-3-nitrobenzamide] | 203 to 204 °C |  | 298 nM | 100% |  | 
3 | COc1ccccc1C(=O)Nc1ccc(-n2nc(C(F)(F)F)cc2C(F)(F)F)cc1 [Example 143, N-[4-[3,5-bis(trifluoromethyl)-1H-pyrazol-1-yl]phenyl]-2-methoxybenzamide] | 100 to 102 °C |  | 1680 nM | 100% |  | 
4 | O=C(Nc1ccc(-n2nc(C(F)(F)F)cc2C(F)(F)F)cc1)c1cccc(F)c1 [Example 146, N-[4-[3,5-bis(trifluoromethyl)-1H-pyrazol-1-yl]phenyl]-3-fluorobenzamide] | 148 to 151 °C |  | 269 nM | 98% |  | 
5 | O=C(Nc1ccc(-n2nc(C(F)(F)F)cc2C(F)(F)F)cc1)c1ccccc1Br [Example 147, N-[4-[3,5-bis(trifluoromethyl)-1H-pyrazol-1-yl]phenyl]-2-bromobenzamide] | 182 to 184 °C |  | 71 nM | 99% |  | 
6 | O=C(Nc1ccc(-n2nc(C(F)(F)F)cc2C(F)(F)F)cc1)c1ccc2c(c1)OCO2 [Example 148, N-[4-[3,5-bis(trifluoromethyl)-1H-pyrazol-1-yl]phenyl]-1,3-benzodioxole-5-carboxamide] | 222 to 224 °C |  | 529 nM | 94% |  | 
7 | O=C(O)c1ccc(C(=O)Nc2ccc(-n3nc(C(F)(F)F)cc3C(F)(F)F)cc2)cc1 [Example 157, 4-[[[4-[3,5-bis(trifluoromethyl)-1H-pyrazol-1-yl]phenyl]amino]carbonyl]benzoic acid] | 282 to 283 °C | 42% | 6760 nM |  |  | 
8 | O=C(O)c1cccc(C(=O)Nc2ccc(-n3nc(C(F)(F)F)cc3C(F)(F)F)cc2)c1 [Example 159, 3-[[[4-[3,5-bis(trifluoromethyl)-1H-pyrazol-1-yl]phenyl]amino]carbonyl]benzoic acid] | 244 to 245 °C | 93% | 2930 nM |  |  | 
9 | O=C(Nc1ccc(-n2nc(C(F)(F)F)cc2C(F)(F)F)cc1)c1c(F)cccc1F [Example 160, N-[4-[3,5-bis(trifluoromethyl)-1H-pyrazol-1-yl]phenyl]-2,6-difluorobenzamide] | 127 to 128 °C |  |  |  | 1% | 
10 | Cc1ccsc1C(=O)Nc1ccc(-n2nc(C(F)(F)F)cc2C(F)(F)F)cc1 [Example 162, N-[4-[3,5-bis(trifluoromethyl)-1H-pyrazol-1-yl]phenyl]-3-methyl-2-thiophenecarboxamide] | 185 to 188 °C | 100% | 44 nM |  |  | 
11 | O=C(Nc1ccc(-n2nc(C(F)(F)F)cc2C(F)(F)F)cc1)c1ccc[nH]1 [Example 166, N-[4-[3,5-bis(trifluoromethyl)-1H-pyrazol-1-yl]phenyl]-1H-pyrrole-2-carboxamide] | > 240 °C |  |  |  | 11% | 
12 | O=C(Nc1ccc(-n2nc(C(F)(F)F)cc2C(F)(F)F)cc1)c1nc(Cl)ccc1Cl [Example 167, N-[4-[3,5-bis(trifluoromethyl)-1H-pyrazol-1-yl]phenyl]-3,6-dichloro-2-pyridinecarboxamide] | 118 to 119 °C |  | 279 nM | 100% |  | 
13 | CC(=O)N1CCC(C(=O)Nc2ccc(-n3nc(C(F)(F)F)cc3C(F)(F)F)cc2)CC1 [Example 174, 1-Acetyl-N-[4-[3,5-bis(trifluoromethyl)-1H-pyrazol-1-yl]phenyl]-4-piperidinecarboxamide] | 94 to 95 °C | 99% | 730 nM |  |  | 
14 | COc1cc(Cl)ccc1C(=O)Nc1ccc(-n2nc(C(F)(F)F)cc2C(F)(F)F)cc1 [Example 176, N-[4-[3,5-Bis(trifluoromethyl)-1H-pyrazol-1-yl]phenyl]-4-chloro-2-methoxybenzamide] | 178 to 180 °C |  |  |  | 12% | 
15 | CC(C(=O)Nc1ccc(-n2nc(C(F)(F)F)cc2C(F)(F)F)cc1)c1ccc(C(=O)c2cccs2)cc1 (stereo not drawn) [Example 177, N-[4-[3,5-bis(trifluoromethyl)-1H-pyrazol-1-yl]phenyl]-α-methyl-4-(2-thienylcarbonyl)benzeneacetamide] | < 80 °C |  |  |  |  | 4(1) %

Further lines, with some results ahead:

Row | melting point | Structure (SMILES) | inhibition at 10 µM ([1]; 3 days) | IC50 [1] | inhibition at 100 µM ([1]; 3 days) | inhibition at 1 µM [1, 2] | % Inhibition of proliferation (at concentrations of 1,10, or 100 μm) [1, 2]
16 | 177 to 178 °C | NS(=O)(=O)c1cccc(C(=O)Nc2ccc(-n3nc(C(F)(F)F)cc3C(F)(F)F)cc2)c1 [Example 141, 3-(aminosulfonyl)-N-[4-[3,5-bis(trifluoromethyl)-1H-pyrazol-1-yl]phenyl]benzamide] |  |  |  | 4% | 
17 | 195 to 196 °C | COC(=O)c1ccc(C(=O)Nc2ccc(-n3nc(C(F)(F)F)cc3C(F)(F)F)cc2)cc1 [Example 142, methyl 4-[[[4-[3,5-bis(trifluoromethyl)-1H-pyrazol-1-yl]phenyl]amino]carbonyl]benzoate] | 99% | 489 nM |  |  | 
18 | 169 to 172 °C | COc1cccc(C(=O)Nc2ccc(-n3nc(C(F)(F)F)cc3C(F)(F)F)cc2)c1 [Example 145, N-[4-[3,5-bis(trifluoromethyl)-1H-pyrazol-1-yl]phenyl]-3-methoxybenzamide] |  | 1590 nM | 94% |  | 
19 | 115 to 117 °C | O=C(Nc1ccc(-n2nc(C(F)(F)F)cc2C(F)(F)F)cc1)c1ccc(Cl)nc1Cl [Example 149, N-[4-[3,5-bis(trifluoromethyl)-1H-pyrazol-1-yl]phenyl]-2,6-dichloro-3-pyridinecarboxamide] |  | 336 nM | 100% |  | 
20 | 145 to 147 °C | O=C(Nc1ccc(-n2nc(C(F)(F)F)cc2C(F)(F)F)cc1)c1cccnc1Cl [Example 150, N-[4-[3,5-bis(trifluoromethyl)-1H-pyrazol-1-yl]phenyl]-2-chloro-3-pyridinecarboxamide] |  | 244 nM | 100% |  | 
21 | 155 to 156 °C | Cc1ccc(C(=O)Nc2ccc(-n3nc(C(F)(F)F)cc3C(F)(F)F)cc2)c(Cl)n1 [Example 151, N-[4-[3,5-bis(trifluoromethyl)-1H-pyrazol-1-yl]phenyl]-2-chloro-6-methyl-3-pyridinecarboxamide] |  | 295 nM | 99% |  | 
22 | 81 to 82 °C | FC(F)(F)c1cc(C(F)(F)F)n(-c2ccc(/C=C/c3ccccc3Cl)cc2)n1 [Example 154, (E)-1-[4-[2-(2-chlorophenyl)ethenyl]phenyl]-3,5-bis(trifluoromethyl)-1H-pyrazole] | 52% | 3820 nM |  |  | 
23 | 204 to 206 °C | Nc1ccccc1C(=O)Nc1ccc(-n2nc(C(F)(F)F)cc2C(F)(F)F)cc1 [Example 163, 2-amino-N-[4-[3,5-bis(trifluoromethyl)-1H-pyrazol-1-yl]phenyl]benzamide] |  | 235 nM | 98% |  | 
24 | 110 to 112 °C | O=C(Nc1ccc(-n2nc(C(F)(F)F)cc2C(F)(F)F)cc1)c1cccnc1F [Example 164, N-[4-[3,5-bis(trifluoromethyl)-1H-pyrazol-1-yl]phenyl]-2-fluoro-3-pyridinecarboxamide] | 99% | 39 nM |  |  | 
25 | 210 to 212 °C | CS(=O)(=O)c1csc(C(=O)Nc2ccc(-n3nc(C(F)(F)F)cc3C(F)(F)F)cc2)c1Cl [Example 165, N-[4-[3,5-bis(trifluoromethyl)-1H-pyrazol-1-yl]phenyl]-3-chloro-4-(methylsulfonyl)-2-thiophenecarboxamide] | 57% | 6700 nM |  |  | 
26 | 170 to 173 °C | O=C(COc1ccccc1[N+](=O)[O-])Nc1ccc(-n2nc(C(F)(F)F)cc2C(F)(F)F)cc1 [Example 168, N-[4-[3,5-bis(trifluoromethyl)-1H-pyrazol-1-yl]phenyl]-2-(2-nitrophenoxy)acetamide] |  |  |  | 20% | 
27 | 122 to 124 °C | O=C(Cc1ccc(Cl)cc1)Nc1ccc(-n2nc(C(F)(F)F)cc2C(F)(F)F)cc1 [Example 169, N-[4-[3,5-bis(trifluoromethyl)-1H-pyrazol-1-yl]phenyl]-4-chlorobenzeneacetamide] |  |  |  | 2% | 
28 | 176 to 178 °C | O=C(Cc1cc2ccccc2[nH]1)Nc1ccc(-n2nc(C(F)(F)F)cc2C(F)(F)F)cc1 [Example 170, N-[4-[3,5-bis(trifluoromethyl)-1H-pyrazol-1-yl]phenyl]-1H-indole-2-acetamide] |  |  |  | 25% | 
29 | 216 to 218 °C | O=C(/C=C/c1cccs1)Nc1ccc(-n2nc(C(F)(F)F)cc2C(F)(F)F)cc1 [Example 171, (E)-N-[4-[3,5-bis(trifluoromethyl)-1H-pyrazol-1-yl]phenyl]-3-(2-thienyl)-2-propenamide] |  |  |  | 12% | 

Source: patent publication US20010044445A1, “AZOLE INHIBITORS OF CYTOKINE PRODUCTION” (priority 1999, published 2001)
